# Source: US4708871A, “Antigenically active amino acid sequences” (priority 1983, dated 1987)
# “Also recorded” adds a separate entry of the source. No end group written: not given here.
# What was measured:
# Type in all cases: binding, rabbit
# [1] = test system: anti-intact virus particle, type O1 antisera
# [2] = test system: anti-virus-subunit, type O1 antiserum
# [3] = test system: anti-VP1, type O1 antiserum
# [4] = test system: anti-intact virus particle, type C1 antiserum
Substance,"Change of activity, absorbed compared to non-absorbed serum [1]",Reactive antibody in anti-intact virus serum after absorption with purified virus (ELISA) [1],Reactive antibody in whole anti-intact virus sera (ELISA) [1],Reactive antibody in anti-subunit sera (ELISA) [2],Activity with another anti-VP1 serum (ELISA) [3],Reactive antibody in anti-VP1 sera (ELISA) [3],Reaction with antiserum to type C1 (ELISA) [4]
DLQVLA [compound 147],loss of activity,absent,present; also recorded: reacted,not observed,showed nothing,only weakly present,did not react at all
GDLQVL [GDLQVL],loss of activity,absent,present; also recorded: reacted,not observed,showed nothing,only weakly present,did not react at all
